The source of these data is ChEMBL document CHEMBL1126516, “Synthesis, biological activity and electrostatic properties of 3-[2-(dimethylamino)ethyl]-5-[(3-amino-1,2,4-thiadiazol-5-yl)methyl]-1H-indole, a novel 5-HT1D receptor agonist” (Bioorg Med Chem Lett, 1993).

Each structure is given as a SMILES string.

The species entered for this assay is Oryctolagus cuniculus. The assay is described as follows: Compound was tested for the contraction of New Zealand white rabbit saphenous vein. Type of assay: functional.
In the case of `CN(C)CCc1c[nH]c2ccc(Cc3nc(N)no3)cc12`, a half-maximal response (EC50) required 501 nM.
Next, `NCCc1c[nH]c2ccc(O)cc12` [SEROTONIN]: 158 nM.
`CN(C)CCc1c[nH]c2ccc(Cc3nc(N)ns3)cc12`: the response was half-maximal at 10 nM (EC50).
Regarding `CNS(=O)(=O)Cc1ccc2[nH]cc(CCN(C)C)c2c1`, the midpoint of the response, the EC50, lay at 631 nM.
